From US10525021B2, “Mitochondrial uncouplers for treatment of metabolic diseases and cancer” (RUTGERS, THE STATE UNIVERSITY OF NEW JERSEY, priority 2014, dated 2020)

Each compound was assayed on AMPK (assay: AMPK activation analysis by immunoblotting with antibody against phosphorylated AMPK). Settings: two-hour treatment, phospho-AMPKα (Thr172) immunoblot.
Assay type: cell-based
Experimental: AMPK activation analysis by immunoblotting assay with antibody against phosphorylated AMPK: mouse pancreatic cancer cell line, Panc02, or NIH-3T3 fibroblasts, or human liver carcinoma cell line HepG2, were cultured in Dulbecco's modified Eagle's medium (DMEM) supplemented with 10% (vol/vol) fetal bovine serum, 100 unit·ml^−1 of penicillin, 100 μg·ml^−1 of streptomycin and 0.29 mg·ml^−1 of L-glutamine at 37° C. and 5% CO2. For treatment, individual compound was first dissolved in DMSO to make stock solution, and then was added directly to the culturing medium to desired concentration by at least 1:1000 dilution. After a two-hour treatment, cells were collected and homogenized within lysis buffer containing 10 mM TRIS-HCl (pH 7.9), 10% glycerol, 0.1 mM EDTA, 100 mM KCl, 0.2% NP-40, 0.5 mM PMSF, 1 mM DTT, mini-complete protease inhibitor cocktail (Roche, 11836153001), and phosphatase inhibitor cocktail (Roche, 04906845001) if required. Nuclei and insoluble debris were pelleted in an Eppendorf micro-centrifuge at 10,000 rpm for 5 min at 4° C. Cell extracts were then stored at −20° C. or immediately subjected to sodium dodecyl sulfate-polyacrylamide gel electrophoresis (SDS-PAGE). […] Quantification was determined by measuring band intensity using ImageJ software and calculating the ratio of protein of interesting to internal loading control. […]
With O=C(Nc1cnc(Br)cn1)c1cc(Cl)ccc1O [Compound 2, N-(5-Bromopyrazin-2-yl)-5-chloro-2-hydroxybenzamide] the “Concentrations for AMPK activation” value was “*** (<=10 μM)”.
With N#Cc1ccc(NC(=O)c2cc(Cl)ccc2OP(=O)(O)O)c(Cl)c1 [Compound 13, 4-Chloro-2-((2-chloro-4-cyanophenyl)carbamoyl)phenyl dihydrogen phosphate] the “Concentrations for AMPK activation” value was “*** (<=10 μM)”.

Each compound was assayed on NIH-3T3 cells, or HepG2 cells (assay: Mitochondrial uncoupling activity assay (loss of mitochondrial TMRE staining in live cells)). Settings: 2 h, read-out: Activities (mitochondrial uncoupling activity, EC50).
Assay type: cell-based
Experimental: Mitochondrial uncoupling analyses in live cells were performed with cultured mammalian cells, the NIH-3T3 cells, or HepG2 cells. Cells were seeded onto 6-well plate and cultured in DMEM medium supplemented with 10% fetal bovine serum and 2 mM glutamine. Cells were allowed to grow to logarithmic growth phase prior to experiments. The cells were treated with each individual synthesized compound at various concentrations for two hours, followed by staining with TMRE (tetramethylrhodamine ethyl ester) at final concentration of 100 nM for 15 minutes. The cells were then washed once with PBS, and examined under fluorescence microscopy. A positive control of cells treated with various concentrations of niclosamide ethanolamine were used as positive control. Percentage of cells losing mitochondrial TMRE staining was used as a quantification of mitochondrial uncoupling activity.
O=C(Nc1cnccn1)c1cc(Cl)ccc1O [Compound 1, 5-Chloro-2-hydroxy-N-(pyrazin-2-yl)benzamide] was tested, and the EC50 was < 10 µM.
For N#Cc1cnc(NC(=O)c2cc(Cl)ccc2O)cn1 [Compound 3, 5-Chloro-N-(5-cyanopyrazin-2-yl)-2-hydroxybenzamide], the EC50 was < 10 µM.
N#Cc1cnc(NC(=O)c2cc(Cl)ccc2O)c(Cl)n1 [Compound 4, 5-Chloro-N-(3-chloro-5-cyanopyrazin-2-yl)-2-hydroxybenzamide] was tested, and the EC50 was > 50 µM.
For O=C(Nc1cncnc1)c1cc(Cl)ccc1O [Compound 5, 5-Chloro-2-hydroxy-N-(pyrimidin-5-yl)benzamide], the EC50 was > 50 µM.
For O=C(Nc1cccnn1)c1cc(Cl)ccc1O [Compound 9, 5-Chloro-2-hydroxy-N-(pyridazin-3-yl)benzamide], the EC50 was > 50 µM.
Compound O=C(Nc1ccc(Cl)nn1)c1cc(Cl)ccc1O [Compound 10, 5-Chloro-N-(6-chloropyridazin-3-yl)-2-hydroxybenzamide] has an EC50 of 10 to 50 µM.
With N#Cc1ccc(NC(=O)c2cc(Cl)ccc2O)nc1 [Compound 11, 5-Chloro-N-(5-cyanopyridin-2-yl)-2-hydroxybenzamide] the EC50 was 10 to 50 µM.
In the case of CCOP(=O)(O)Oc1ccc(Cl)cc1C(=O)Nc1ccc(C#N)cc1Cl [Compound 12, 4-Chloro-2-((2-chloro-4-cyanophenyl)carbamoyl)phenyl ethyl hydrogen phosphate], the EC50 is reported as > 50 µM.
With N#Cc1ccc(NC(=O)c2cc(Cl)ccc2OP(=O)(O)O)c(Cl)c1 [Compound 13, 4-Chloro-2-((2-chloro-4-cyanophenyl)carbamoyl)phenyl dihydrogen phosphate] the EC50 was < 10 µM.
O=C(Nc1nc2c(F)cccc2s1)c1cc(Cl)ccc1O [Compound 18, 5-Chloro-N-(4-fluorobenzo[d]thiazol-2-yl)-2-hydroxybenzamide] was tested, and the EC50 was < 10 µM.
With N#Cc1cnc(NC(=O)c2cc(Cl)ccc2OP(=O)(O)O)cn1 [Compound 19, 4-Chloro-2-((5-cyanopyrazin-2-yl)carbamoyl)phenyl dihydrogen phosphate] the EC50 was < 10 µM.
O=C(Nc1nc2c(C(F)(F)F)cccc2s1)c1cc(Cl)ccc1O [Compound 29, 5-Chloro-2-hydroxy-N-(4-(trifluoromethyl)benzo[d]thiazol-2-yl)benzamide] was tested, and the EC50 was < 10 µM.
For O=C(Nc1nc2ccc(C(F)(F)F)cc2s1)c1cc(Cl)ccc1O [Compound 31, 5-chloro-2-hydroxy-N-(6-(trifluoromethyl)benzo[d]thiazol-2-yl)benzamide], the EC50 was < 10 µM.

Same assay, conditions: 2 h; two-hour treatment, TMRE 100 nM staining; concentration at which mitochondrial TMRE fluorescence is reduced to about 50%; read-out: Activities (mitochondrial uncoupling activity, EC50)
For O=C(Nc1cnc(Br)cn1)c1cc(Cl)ccc1O [Compound 2, N-(5-Bromopyrazin-2-yl)-5-chloro-2-hydroxybenzamide], the EC50 was < 10 µM.
O=C(Nc1cnc(Cl)nc1Cl)c1cc(Cl)ccc1O [Compound 6, 5-Chloro-N-(2,4-dichloropyrimidin-5-yl)-2-hydroxybenzamide] was tested, and the EC50 was > 50 µM.
With O=C(Nc1cnc(Cl)nc1)c1cc(Cl)ccc1O [Compound 7, 5-Chloro-N-(2-chloropyrimidin-5-yl)-2-hydroxybenzamide] the EC50 was < 10 µM.
N#Cc1ncc(NC(=O)c2cc(Cl)ccc2O)cn1 [Compound 8, 5-Chloro-N-(2-cyanopyrimidin-5-yl)-2-hydroxybenzamide] was tested, and the EC50 was 10 to 50 µM.
For O=C(Nc1ccc2scnc2c1)c1cc(Cl)ccc1O [Compound 15, N-(Benzo[d]thiazol-5-yl)-5-chloro-2-hydroxybenzamide], the EC50 was < 10 µM.
For N#Cc1cnc(NC(=O)c2cc(Cl)ccc2O)s1 [Compound 16, 5-chloro-N-(5-cyanothiazol-2-yl)-2-hydroxybenzamide], the EC50 was < 10 µM.
O=C(Nc1ccc2ccncc2c1)c1cc(Cl)ccc1O [Compound 21, 5-Chloro-2-hydroxy-N-(isoquinolin-7-yl)benzamide] showed an EC50 of 10 to 50 µM.
Compound O=C(Nc1ccc2nccnc2c1)c1cc(Cl)ccc1O [Compound 22, 5-Chloro-2-hydroxy-N-(quinoxalin-6-yl)benzamide] has an EC50 of 10 to 50 µM.
For O=C(Nc1cnc(C(F)(F)F)cn1)c1cc(Cl)ccc1O [Compound 35, 5-chloro-2-hydroxy-N-(5-(trifluoromethyl)pyrazin-2-yl)benzamide], the EC50 was < 10 µM.
With N#Cc1ccc2nc(NC(=O)c3cc(Cl)ccc3O)sc2c1 [Compound 36, 5-chloro-N-(6-cyanobenzo[d]thiazol-2-yl)-2-hydroxybenzamide] the EC50 was < 10 µM.

The compounds below were run on mouse colon cancer cell line MC38 (assay: Clonogenic assay for cell proliferation inhibition (colony formation)). Settings: MC-38, MC38 cells, treated 24-48 hrs, colonies counted after 2 weeks, read-out: IC50 concentrations (inhibition of colony formation).
Assay type: cell-based
Experimental: Clonogenic assay for determining activity of cell proliferation inhibition: mouse colon cancer cell line MC38 was seeded onto 6-well plates at the density of about 200 cells per well, grown under medium conditions as described above, after attachment, cells were treated with ascending concentrations of example compounds for 24-48 hrs. The drug-containing medium was then removed and fresh medium without drug was added to each well. Cells were then grown for 2 weeks for colony formation. During the two weeks, old medium was aspirated out and fresh drug-free medium was added to the wells every two days. At the end of the experiment, the colonies were counted for the treatment at each concentration. IC50 is defined as the concentration that inhibits 50% of colony formation as compared to the no drug treatment control.
For N#Cc1ccc(NC(=O)c2cc(Cl)ccc2OP(=O)(O)O)c(Cl)c1 [Compound 14, Sodium 4-chloro-2-((2-chloro-4-cyanophenyl)carbamoyl)phenyl phosphate], the IC50 was ≤ 10 µM.
